Test results taken from the NIST ThermoML archive (doi:10.1021/je900212d).

Legend:
[1] = xn = mol fraction of the nth substance listed; settings: 101 kPa, Liquid
[2] = 101.33 kPa, Liquid

ClCCCl [1,2-dichloroethane] + CCCO
[1]
Settings	mass density [kg/m3]	viscosity [mPa·s]
288.15 K, x2 = 0.1054	1211	0.8441
288.15 K, x2 = 0.2095	1166.4	0.8809
288.15 K, x2 = 0.3124	1121.8	0.9238
288.15 K, x2 = 0.4141	1078.4	0.998
288.15 K, x2 = 0.5146	1032.4	1.1
288.15 K, x2 = 0.6139	986	1.256
288.15 K, x2 = 0.7121	942.8	1.464
288.15 K, x2 = 0.8092	895.4	1.726
288.15 K, x2 = 0.9051	843.5	2.029
293.15 K, x2 = 0.1054	1205	0.785
293.15 K, x2 = 0.2096	1159.7	0.8086
293.15 K, x2 = 0.3126	1116.2	0.8504
293.15 K, x2 = 0.4143	1072.1	0.9115
293.15 K, x2 = 0.5148	1026.6	0.9988
293.15 K, x2 = 0.6141	980.6	1.139
293.15 K, x2 = 0.7123	938.6	1.31
293.15 K, x2 = 0.8093	890.5	1.534
293.15 K, x2 = 0.9052	839.4	1.795
298.15 K, x2 = 0.1054	1199.2	0.7324
298.15 K, x2 = 0.2095	1154.4	0.7472
298.15 K, x2 = 0.3124	1109.3	0.7831
298.15 K, x2 = 0.4141	1067.1	0.8368
298.15 K, x2 = 0.5146	1021.3	0.911
298.15 K, x2 = 0.614	976.2	1.035
298.15 K, x2 = 0.7122	934	1.176
298.15 K, x2 = 0.8092	885.9	1.37
298.15 K, x2 = 0.9052	836.3	1.603
303.15 K, x2 = 0.1056	1192.6	0.6845
303.15 K, x2 = 0.2099	1147.7	0.7003
303.15 K, x2 = 0.3129	1104.2	0.7255
303.15 K, x2 = 0.4146	1061.1	0.7704
303.15 K, x2 = 0.5151	1016	0.8342
303.15 K, x2 = 0.6144	970.5	0.9344
303.15 K, x2 = 0.7125	929.7	1.061
303.15 K, x2 = 0.8095	882.6	1.228
303.15 K, x2 = 0.9053	832.8	1.441
308.15 K, x2 = 0.1057	1183.4	0.64
308.15 K, x2 = 0.21	1140.7	0.6502
308.15 K, x2 = 0.3131	1097.2	0.6731
308.15 K, x2 = 0.4149	1054.9	0.7116
308.15 K, x2 = 0.5154	1009.5	0.7657
308.15 K, x2 = 0.6147	964	0.8541
308.15 K, x2 = 0.7128	924.3	0.9603
308.15 K, x2 = 0.8097	877.3	1.105
308.15 K, x2 = 0.9054	827.5	1.303
313.15 K, x2 = 0.1058	1174.9	0.6002
313.15 K, x2 = 0.2103	1133.5	0.6056
313.15 K, x2 = 0.3134	1089	0.6256
313.15 K, x2 = 0.4152	1047.4	0.6588
313.15 K, x2 = 0.5158	1004	0.706
313.15 K, x2 = 0.615	956.7	0.7849
313.15 K, x2 = 0.7131	918.9	0.8728
313.15 K, x2 = 0.8099	870.1	0.9952
313.15 K, x2 = 0.9055	821.5	1.176

ClCCCl [1,2-dichloroethane]
[2]
Settings	mass density [kg/m3]	viscosity [mPa·s]
288.15 K	1259	0.87
293.15 K	1251.9	0.8112
298.15 K	1247.4	0.7597
303.15 K	1239	0.7112
308.15 K	1231.2	0.6747
313.15 K	1222	0.6269

CCCO [propan-1-ol]
[2]
Settings	mass density [kg/m3]	viscosity [mPa·s]
288.15 K	810.5	2.42
293.15 K	806.5	2.137
298.15 K	803.2	1.894
303.15 K	799.3	1.684
308.15 K	795.2	1.504
313.15 K	790.4	1.352

O=Cc1ccccc1 [benzaldehyde] + CCCO
[1]
Settings	mass density [kg/m3]	viscosity [mPa·s]
288.15 K, x2 = 0.099	1038.8	1.689
288.15 K, x2 = 0.193	1021.8	1.661
288.15 K, x2 = 0.3112	997.7	1.622
288.15 K, x2 = 0.3949	980.8	1.637
288.15 K, x2 = 0.5004	956.4	1.645
288.15 K, x2 = 0.5997	932.9	1.683
288.15 K, x2 = 0.6932	–	1.774
288.15 K, x2 = 0.8026	875.4	1.873
288.15 K, x2 = 0.9046	843.1	2.075
293.15 K, x2 = 0.0988	1034.2	1.536
293.15 K, x2 = 0.1927	1017	1.505
293.15 K, x2 = 0.3108	993.2	1.468
293.15 K, x2 = 0.3944	976.2	1.475
293.15 K, x2 = 0.5	951.6	1.483
293.15 K, x2 = 0.5992	928.6	1.501
293.15 K, x2 = 0.6927	–	1.588
293.15 K, x2 = 0.8023	871.4	1.669
293.15 K, x2 = 0.9045	839.1	1.84
298.15 K, x2 = 0.099	1029.9	1.405
298.15 K, x2 = 0.1929	1012.8	1.373
298.15 K, x2 = 0.3111	989.2	1.337
298.15 K, x2 = 0.3948	971.3	1.333
298.15 K, x2 = 0.5003	947	1.342
298.15 K, x2 = 0.5996	923.7	1.363
298.15 K, x2 = 0.693	–	1.423
298.15 K, x2 = 0.8025	867.6	1.491
298.15 K, x2 = 0.9046	835.3	1.64
303.15 K, x2 = 0.0989	1025.9	1.292
303.15 K, x2 = 0.1927	1008.1	1.258
303.15 K, x2 = 0.3108	984.8	1.224
303.15 K, x2 = 0.3945	967	1.216
303.15 K, x2 = 0.5	942.9	1.223
303.15 K, x2 = 0.5993	919.5	1.237
303.15 K, x2 = 0.6928	–	1.287
303.15 K, x2 = 0.8023	863.6	1.342
303.15 K, x2 = 0.9045	831.6	1.491
308.15 K, x2 = 0.0988	1021.4	1.193
308.15 K, x2 = 0.1926	1003.4	1.158
308.15 K, x2 = 0.3106	980.1	1.126
308.15 K, x2 = 0.3942	962.7	1.12
308.15 K, x2 = 0.4997	937.8	1.117
308.15 K, x2 = 0.599	915.5	1.128
308.15 K, x2 = 0.6925	–	1.169
308.15 K, x2 = 0.8022	858.9	1.215
308.15 K, x2 = 0.9044	827.3	1.317
313.15 K, x2 = 0.0986	1015.1	1.104
313.15 K, x2 = 0.1923	997.8	1.069
313.15 K, x2 = 0.3102	973.8	1.039
313.15 K, x2 = 0.3938	956.5	1.024
313.15 K, x2 = 0.4993	934	1.026
313.15 K, x2 = 0.5986	910.9	1.033
313.15 K, x2 = 0.6922	894.8	1.063
313.15 K, x2 = 0.8019	853.6	1.099
313.15 K, x2 = 0.9043	823.6	1.188

O=Cc1ccccc1 [benzaldehyde] + ClCCCl
[1]
Settings	mass density [kg/m3]	viscosity [mPa·s]
288.15 K, x1 = 0.1005	1233	0.9491
288.15 K, x1 = 0.2068	1207.2	1.034
288.15 K, x1 = 0.2964	1186.5	1.097
288.15 K, x1 = 0.3902	1166	1.171
288.15 K, x1 = 0.4888	1146.4	1.27
288.15 K, x1 = 0.5923	1125.5	1.348
288.15 K, x1 = 0.7012	1107.6	1.454
288.15 K, x1 = 0.8159	1086.7	1.58
288.15 K, x1 = 0.9061	1070.6	1.66
293.15 K, x1 = 0.1007	1227.6	0.8854
293.15 K, x1 = 0.2072	1200	0.9592
293.15 K, x1 = 0.2969	1180.5	1.017
293.15 K, x1 = 0.3909	1161.8	1.085
293.15 K, x1 = 0.4894	1139.5	1.168
293.15 K, x1 = 0.5929	1119.9	1.242
293.15 K, x1 = 0.7017	1102.2	1.335
293.15 K, x1 = 0.8163	1082	1.445
293.15 K, x1 = 0.9063	1066.4	1.517
298.15 K, x1 = 0.1006	1220.5	0.8213
298.15 K, x1 = 0.2069	1196.1	0.8951
298.15 K, x1 = 0.2965	1174.6	0.9471
298.15 K, x1 = 0.3904	1155.5	1.008
298.15 K, x1 = 0.4889	1133.4	1.08
298.15 K, x1 = 0.5924	1117.3	1.151
298.15 K, x1 = 0.7013	1098.6	1.233
298.15 K, x1 = 0.816	1077.9	1.328
298.15 K, x1 = 0.9061	1063.1	1.394
303.15 K, x1 = 0.1009	1214.3	0.7706
303.15 K, x1 = 0.2074	1190	0.8362
303.15 K, x1 = 0.2972	1169.8	0.8848
303.15 K, x1 = 0.3911	1150.1	0.9515
303.15 K, x1 = 0.4897	1126.5	1.003
303.15 K, x1 = 0.5932	1112.7	1.07
303.15 K, x1 = 0.702	1094.4	1.143
303.15 K, x1 = 0.8165	1073.2	1.225
303.15 K, x1 = 0.9064	1058.5	1.285
308.15 K, x1 = 0.1011	1206.5	0.726
308.15 K, x1 = 0.2078	1182.6	0.7824
308.15 K, x1 = 0.2976	1162.9	0.828
308.15 K, x1 = 0.3917	1144.1	0.8897
308.15 K, x1 = 0.4903	1121	0.9346
308.15 K, x1 = 0.5937	1107.8	0.998
308.15 K, x1 = 0.7025	1091	1.067
308.15 K, x1 = 0.8168	1068.5	1.135
308.15 K, x1 = 0.9066	1053	1.189
313.15 K, x1 = 0.1013	1198	0.6795
313.15 K, x1 = 0.2083	1173.6	0.7327
313.15 K, x1 = 0.2983	1153.9	0.777
313.15 K, x1 = 0.3924	1136.7	0.8272
313.15 K, x1 = 0.491	1115.5	0.8725
313.15 K, x1 = 0.5945	1102.2	0.9318
313.15 K, x1 = 0.7031	1085.5	0.9944
313.15 K, x1 = 0.8173	1063.1	1.054
313.15 K, x1 = 0.9069	1049.7	1.107

O=Cc1ccccc1 [benzaldehyde]
[2]
Settings	mass density [kg/m3]	viscosity [mPa·s]
288.15 K	1056	1.704
293.15 K	1052.8	1.558
298.15 K	1047	1.427
303.15 K	1043.2	1.316
308.15 K	1039	1.223
313.15 K	1034.4	1.131
